Columns and labels:
[1] = test system: working memory processes (cognition); test: Novel object recognition (NOR) test; assay type: in vivo, rats
Procedure: Cognition can be assessed by the novel object recognition (NOR). NOR can be used to access cognitive performance with respect to processes of working memory, such as recognition, interpretation and appropriate response. The NOR test was performed using the compound of Example 1 and reference compound in vehicle of 20% β-cyclodextrin (βCD) in dH2O. Example 1 (at 3.0 mg/kg, ip in rats) has activity as measured in the NOR test. Along with Example 1, Examples 2, 12 and 35 (at 1.0 mg/kg, po in rats) have activity as measured in the NOR test.

[2] = molecular target: human metabotropic glutamate receptor 5 (hmGluR5) (UniProt P31424); test: Calcium mobilization (FLIPR) assay, positive allosteric modulation of the EC20 glutamate response; assay type: cell-based; settings: HEK 293 cells; for maximum modulation (Emax): EC20 glutamate response; for EC50: increase in EC20 glutamate response
Procedure: The cDNA for human metabotropic glutamate receptor 5 (hmGluR5) was a generous gift from S. Nakanishi (Kyoto University, Kyoto, Japan). The […] was stably expressed in a HEK 293 cell line and grown in Dulbecco's Modified Eagle Medium (DMEM) (Invitrogen, Carlsbad, Calif.) with supplements (10% bovine calf serum, 4 mM glutamine, 100 units/mL penicillin, 100 μg/mL streptomycin and […]) at 37° C., 5% CO2. Twenty-four hours prior to assay, cells were seeded into 384-well black wall microtiter plates coated with poly-D-lysine. Just prior to assay, media was aspirated and cells dye-loaded (25 μL/well) with 3 μM Fluo-4/0.01% pluronic acid in assay buffer (Hank's Balanced Saline Solution (HBSS)): 150 mM NaCl, 5 mM KCl, 1 mM CaCl2, 1 mM MgCl2, plus 20 mM N-2-Hydroxyethylpiperazine-N′-2-ethanesulfonic acid (HEPES), pH 7.4, 0.1% bovine serum albumin (BSA) and 2.5 mM probenicid) for 1 hour in 5% CO2 at 37° C. After excess dye was discarded, cells were washed in assay buffer and layered with a final volume equal to 30 μL/well. Basal fluorescence is monitored in a fluorometric imaging plate reader (FLIPR) (Molecular Devices, Sunnyvale, Calif.) with an excitation wavelength of 488 nm and an emission range of 500 to 560 nm. Laser excitation energy was adjusted so that basal fluorescence readings were approximately 10,000 relative fluorescent units. Cells were stimulated with an EC20 or an EC80 concentration of glutamate in the presence of a compound to be tested, both diluted in assay buffer, and relative fluorescent units were measured at defined intervals (exposure=0.6 sec) over a 3 min period at room temperature. Basal readings derived from negative controls were subtracted from all samples. Maximum change in fluorescence was calculated for each well. Concentration-response curves derived from the maximum change in fluorescence were analyzed by nonlinear regression (Hill equation).
A silent allosteric modulator (SAM) can be identified by using a combination of both the calcium mobilization assay data and the radioligand binding data. As used herein, the term “silent allosteric modulator” refers to a ligand that binds to an allosteric site of the receptor but has no measurable intrinsic efficacy.

mGluR5 = mGluR5 (Homo sapiens, UniProt P41594); test: [3H] MPEP radioligand filtration binding assay on membrane homogenates; settings: 5 nM [3H] MPEP, Cheng-Prusoff from IC50
Procedure: Binding assays were performed as described in [J. A. O'Brien et al. Mol. Pharmacol., 2003, 64, 731-740] with slight modifications. Briefly, after thawing, the membrane homogenates were resuspended in 50 mM Tris-HCl, 0.9% NaCl binding buffer at pH 7.4 to a final assay concentration of 20 μg protein/well for [^3H] […] ([^3H] MPEP) (American Radiolabeled Chemicals, Inc., St. Louis, Mo.) filtration binding. Incubations included 5 nM [^3H] MPEP, membranes and either buffer or varying concentrations of compound. Samples were incubated for 60 min at room temperature with shaking. Non-specific binding was defined with 10 μM MPEP. After incubation, samples were filtered over a GF/C filter (presoaked in 0.25% polyethyleneimine (PEI)) and then washed 4 times using a Tomtec® Harvester 96® Mach III cell harvester (Tomtec, Hamden, Conn.) with 0.5 mL ice-cold 50 mM Tris-HCl (pH 7.4).
IC50 values were derived from the inhibition curve and Ki values were calculated according to the Cheng and Prusoff equation of Ki=IC50/(1+[L]/Kd) described in [Y. Cheng and W. H. Prusoff Biochem. Pharmacol. 1973, 22, 3099-3108] where [L] is the concentration of radioligand and Kd is its dissociation constant at the receptor, derived from the saturation isotherm.

Chain of mGluR5 (P41594 21-1212): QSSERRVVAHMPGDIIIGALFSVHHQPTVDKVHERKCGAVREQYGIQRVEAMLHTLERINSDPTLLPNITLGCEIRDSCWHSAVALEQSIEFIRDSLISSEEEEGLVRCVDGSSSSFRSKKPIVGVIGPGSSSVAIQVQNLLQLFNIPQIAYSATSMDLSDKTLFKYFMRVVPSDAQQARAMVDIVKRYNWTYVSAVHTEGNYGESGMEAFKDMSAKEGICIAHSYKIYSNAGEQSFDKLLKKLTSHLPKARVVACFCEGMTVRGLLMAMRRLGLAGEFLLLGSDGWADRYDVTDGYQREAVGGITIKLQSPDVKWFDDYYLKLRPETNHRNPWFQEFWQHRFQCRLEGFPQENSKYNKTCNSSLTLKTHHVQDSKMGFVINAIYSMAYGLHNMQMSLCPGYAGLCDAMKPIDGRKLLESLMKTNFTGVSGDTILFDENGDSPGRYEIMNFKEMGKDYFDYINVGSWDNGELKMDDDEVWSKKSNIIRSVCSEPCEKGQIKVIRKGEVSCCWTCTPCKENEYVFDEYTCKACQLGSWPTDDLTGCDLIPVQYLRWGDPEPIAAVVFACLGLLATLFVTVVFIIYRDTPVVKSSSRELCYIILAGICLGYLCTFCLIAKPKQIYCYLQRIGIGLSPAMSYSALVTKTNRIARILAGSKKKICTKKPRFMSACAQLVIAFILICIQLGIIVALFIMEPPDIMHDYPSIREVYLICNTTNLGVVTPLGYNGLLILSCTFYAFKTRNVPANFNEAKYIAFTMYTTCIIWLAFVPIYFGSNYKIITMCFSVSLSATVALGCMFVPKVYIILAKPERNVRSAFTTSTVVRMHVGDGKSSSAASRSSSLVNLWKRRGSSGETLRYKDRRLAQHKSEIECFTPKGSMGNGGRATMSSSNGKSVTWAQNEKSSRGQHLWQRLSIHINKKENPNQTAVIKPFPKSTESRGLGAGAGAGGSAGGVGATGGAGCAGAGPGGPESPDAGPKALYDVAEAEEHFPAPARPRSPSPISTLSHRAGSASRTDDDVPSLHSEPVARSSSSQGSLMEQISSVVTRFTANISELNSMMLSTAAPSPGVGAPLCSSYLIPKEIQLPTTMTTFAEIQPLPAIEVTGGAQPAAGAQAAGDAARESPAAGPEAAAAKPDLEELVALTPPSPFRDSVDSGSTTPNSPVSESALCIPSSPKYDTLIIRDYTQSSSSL

| Structure (SMILES) | maximum modulation (Emax) [2] | EC50 [2] | Ki (mGluR5) | activity in the NOR test ([1]; 1.0 mg/kg, po in rats, FIG. 2) | activity in the NOR test ([1]; 3.0 mg/kg, ip in rats, FIG. 1) |
| --- | --- | --- | --- | --- | --- |
| O=C(c1cnc(C#Cc2ccccc2)s1)N1CCC(F)CC1 [Example 2, (4-Fluoro-piperidin-1-yl)-(2-phenylethynyl-thiazol-5-yl)-methanone] | 130% | 7.9 nM | 192 nM | have activity |  |
| O=C(c1cnc(C#Cc2cccc(Cl)c2)s1)N1CCCCC1 [Example 35, [2-(3-Chloro-phenylethynyl)-thiazol-5-yl]-piperidin-1-yl-methanone] |  |  |  | have activity |  |
| O=C(c1cnc(C#Cc2ccccc2)s1)N1CCCCC1 [Example 1, (2-Phenylethynyl-thiazol-5-yl)-piperidin-1-yl-methanone] | 210% | 3.6 nM | 139 nM | have activity | has activity |

More lines, main results first:

| maximum modulation (Emax) [2] | EC50 [2] | Ki (mGluR5) | Structure (SMILES) | activity in the NOR test ([1]; 1.0 mg/kg, po in rats, FIG. 2) | activity in the NOR test ([1]; 3.0 mg/kg, ip in rats, FIG. 1) |
| --- | --- | --- | --- | --- | --- |
| 170% | 280 nM | 7170 nM | O=C(c1cnc(C#Cc2ccccc2)s1)N1CCC(O)CC1 [Example 12, (4-Hydroxy-piperidin-1-yl)-(2-phenylethynyl-thiazol-5-yl)-methanone] | have activity |  |
|  |  | 300 nM | O=C(c1cnc(C#Cc2cccc(F)c2)s1)N1CCOCC1 [Example 22, [2-(3-Fluoro-phenylethynyl)-thiazol-5-yl]-morpholin-4-yl-methanone] |  |  |
| 150% | 3.5 nM | 135 nM | CC1CCN(C(=O)c2cnc(C#Cc3ccccc3)s2)CC1 [Example 11, (4-Methyl-piperidin-1-yl)-(2-phenylethynyl-thiazol-5-yl)-methanone] |  |  |
|  |  | 860 nM | O=C(c1cnc(C#Cc2ccccc2)s1)N1CCOCC1 [Example 7, Morpholin-4-yl-(2-phenylethynyl-thiazol-5-yl)-methanone] |  |  |

Reference: patent US8440837B2, “2-substituted-ethynylthiazole derivatives and uses of same” (H. Lundbeck A/S, priority 2009, dated 2013)
